{"source": "paper PMC10465233", "about": "“Lys-urea-Aad, Lys-urea-Cmc and Lys-urea-Cms as potential pharmacophores for the design of PSMA-targeted radioligands to reduce off-target uptake in kidneys and salivary glands” (Theranostics, 2023)", "test_system": "LNCaP tumor-bearing mice", "assay": "Ex vivo biodistribution in LNCaP tumor-bearing mice", "parameters": "species or system mouse", "method": "Imaging, biodistribution and radioligand therapy experiments were performed following previously published procedures using male NOD-scid IL2Rg^null (NSG) or NOD.Cg-Rag1^tm1MomIl2rg^tm1Wjl/SzJ (NRG) mice [10]-[12],[14]-[15]. The experiments were conducted according to the guidelines established by the Canadian Council on Animal Care and approved by Animal Ethics Committee of the University of British Columbia. The mice were briefly sedated by inhalation of 2% isoflurane in oxygen, and implanted subcutaneously with 1×10^7 LNCaP cells behind the left shoulder. The mice were imaged or used in biodistribution studies when the tumor grew to 5-8 mm in diameter over a period of 4-5 weeks.\nFor biodistribution studies, the mice were injected with the radioligand (2-4 MBq) as described above. For blocking, the mice were co-injected with nonradioactive DCFPyL (0.5 mg). At predetermined time points, the mice were sedated by isoflurane inhalation and euthanized by CO2 inhalation. Blood was withdrawn by cardiac puncture, and organs/tissues of interest were collected, weighed and counted using an automatic gamma counter (Tables S4-S7)."}
{"smiles": "COc1ccc(CCCC(=O)NCC(=O)N[C@@H](CCCCNC(=O)CN2CCN(CC(=O)[O-])CCN(CC(=O)[O-])CCN(CC(=O)[O-])CC2)C(=O)NC[C@H]2CC[C@H](C(=O)N[C@@H](Cc3c4ccccc4cc4ccccc34)C(=O)NCCCC[C@H](NC(=O)N[C@@H](CCCC(=O)O)C(=O)O)C(=O)O)CC2)cc1.[177Lu+3]", "note": "[[^177Lu]Lu-HTK03170]", "values": [{"measurement": "Adrenal glands uptake", "setting": "1 h post-injection", "value": "3.34 ± 0.45", "unit": "%ID/g"}, {"measurement": "Blood uptake", "setting": "1 h post-injection", "value": "16.9 ± 1.97", "unit": "%ID/g"}, {"measurement": "Blood:Salivary gland uptake ratio", "setting": "1 h post-injection", "value": "7.04 ± 0.86"}, {"measurement": "Bone uptake", "setting": "1 h post-injection", "value": "0.89 ± 0.27", "unit": "%ID/g"}, {"measurement": "Brain uptake", "setting": "1 h post-injection", "value": "0.23 ± 0.04", "unit": "%ID/g"}, {"measurement": "Fat uptake", "setting": "1 h post-injection", "value": "1.38 ± 0.45", "unit": "%ID/g"}, {"measurement": "Heart uptake", "setting": "1 h post-injection", "value": "3.60 ± 0.52", "unit": "%ID/g"}, {"measurement": "Intestines uptake", "setting": "1 h post-injection", "value": "1.19 ± 0.25", "unit": "%ID/g"}, {"measurement": "Kidneys uptake", "setting": "1 h post-injection", "value": "13.2 ± 1.87", "unit": "%ID/g"}, {"measurement": "Lacrimal glands uptake", "setting": "1 h post-injection", "value": "0.27 ± 0.08", "unit": "%ID/g"}, {"measurement": "Liver uptake", "setting": "1 h post-injection", "value": "2.67 ± 0.37", "unit": "%ID/g"}, {"measurement": "Lungs uptake", "setting": "1 h post-injection", "value": "8.06 ± 1.48", "unit": "%ID/g"}, {"measurement": "Muscle uptake", "setting": "1 h post-injection", "value": "1.15 ± 0.19", "unit": "%ID/g"}, {"measurement": "Pancreas uptake", "setting": "1 h post-injection", "value": "1.41 ± 0.31", "unit": "%ID/g"}, {"measurement": "Salivary glands uptake", "setting": "1 h post-injection", "value": "2.43 ± 0.33", "unit": "%ID/g"}, {"measurement": "Spleen uptake", "setting": "1 h post-injection", "value": "1.64 ± 0.83", "unit": "%ID/g"}, {"measurement": "Stomach uptake", "setting": "1 h post-injection", "value": "0.59 ± 0.12", "unit": "%ID/g"}, {"measurement": "Testes uptake", "setting": "1 h post-injection", "value": "2.17 ± 0.32", "unit": "%ID/g"}, {"measurement": "Thyroid uptake", "setting": "1 h post-injection", "value": "2.90 ± 0.41", "unit": "%ID/g"}, {"measurement": "Tumor uptake", "setting": "1 h post-injection", "value": "27.2 ± 7.55", "unit": "%ID/g"}, {"measurement": "Tumor:Blood uptake ratio", "setting": "1 h post-injection", "value": "1.58 ± 0.26"}, {"measurement": "Tumor:Kidney uptake ratio", "setting": "1 h post-injection", "value": "2.07 ± 0.55"}, {"measurement": "Tumor:Muscle uptake ratio", "setting": "1 h post-injection", "value": "23.5 ± 4.66"}, {"measurement": "Tumor:Salivary gland uptake ratio", "setting": "1 h post-injection", "value": "11.3 ± 2.76"}, {"measurement": "Adrenal glands uptake", "setting": "4 h post-injection", "value": "1.78 ± 0.45", "unit": "%ID/g"}, {"measurement": "Blood uptake", "setting": "4 h post-injection", "value": "8.34 ± 1.67", "unit": "%ID/g"}, {"measurement": "Blood:Salivary gland uptake ratio", "setting": "4 h post-injection", "value": "6.48 ± 1.02"}, {"measurement": "Bone uptake", "setting": "4 h post-injection", "value": "0.45 ± 0.13", "unit": "%ID/g"}, {"measurement": "Brain uptake", "setting": "4 h post-injection", "value": "0.13 ± 0.03", "unit": "%ID/g"}, {"measurement": "Fat uptake", "setting": "4 h post-injection", "value": "0.60 ± 0.13", "unit": "%ID/g"}, {"measurement": "Heart uptake", "setting": "4 h post-injection", "value": "1.91 ± 0.40", "unit": "%ID/g"}, {"measurement": "Intestines uptake", "setting": "4 h post-injection", "value": "0.61 ± 0.17", "unit": "%ID/g"}, {"measurement": "Kidneys uptake", "setting": "4 h post-injection", "value": "9.23 ± 2.18", "unit": "%ID/g"}, {"measurement": "Lacrimal glands uptake", "setting": "4 h post-injection", "value": "0.15 ± 0.07", "unit": "%ID/g"}, {"measurement": "Liver uptake", "setting": "4 h post-injection", "value": "1.89 ± 0.69", "unit": "%ID/g"}, {"measurement": "Lungs uptake", "setting": "4 h post-injection", "value": "4.35 ± 0.82", "unit": "%ID/g"}, {"measurement": "Muscle uptake", "setting": "4 h post-injection", "value": "0.58 ± 0.13", "unit": "%ID/g"}, {"measurement": "Pancreas uptake", "setting": "4 h post-injection", "value": "0.74 ± 0.18", "unit": "%ID/g"}, {"measurement": "Salivary glands uptake", "setting": "4 h post-injection", "value": "1.31 ± 0.30", "unit": "%ID/g"}, {"measurement": "Spleen uptake", "setting": "4 h post-injection", "value": "0.96 ± 0.29", "unit": "%ID/g"}, {"measurement": "Stomach uptake", "setting": "4 h post-injection", "value": "0.42 ± 0.15", "unit": "%ID/g"}, {"measurement": "Testes uptake", "setting": "4 h post-injection", "value": "1.83 ± 0.58", "unit": "%ID/g"}, {"measurement": "Thyroid uptake", "setting": "4 h post-injection", "value": "1.62 ± 0.42", "unit": "%ID/g"}, {"measurement": "Tumor uptake", "setting": "4 h post-injection", "value": "47.6 ± 13.5", "unit": "%ID/g"}, {"measurement": "Tumor:Blood uptake ratio", "setting": "4 h post-injection", "value": "5.81 ± 1.58"}, {"measurement": "Tumor:Kidney uptake ratio", "setting": "4 h post-injection", "value": "5.38 ± 1.91"}, {"measurement": "Tumor:Muscle uptake ratio", "setting": "4 h post-injection", "value": "83.1 ± 17.0"}, {"measurement": "Tumor:Salivary gland uptake ratio", "setting": "4 h post-injection", "value": "36.4 ± 5.35"}, {"measurement": "Adrenal glands uptake", "setting": "24 h post-injection", "value": "0.50 ± 0.16", "unit": "%ID/g"}, {"measurement": "Blood uptake", "setting": "24 h post-injection", "value": "0.59 ± 0.13", "unit": "%ID/g"}, {"measurement": "Blood:Salivary gland uptake ratio", "setting": "24 h post-injection", "value": "2.11 ± 0.47"}, {"measurement": "Bone uptake", "setting": "24 h post-injection", "value": "0.06 ± 0.04", "unit": "%ID/g"}, {"measurement": "Brain uptake", "setting": "24 h post-injection", "value": "0.02 ± 0.01", "unit": "%ID/g"}, {"measurement": "Fat uptake", "setting": "24 h post-injection", "value": "0.12 ± 0.04", "unit": "%ID/g"}, {"measurement": "Heart uptake", "setting": "24 h post-injection", "value": "0.26 ± 0.04", "unit": "%ID/g"}, {"measurement": "Intestines uptake", "setting": "24 h post-injection", "value": "0.18 ± 0.07", "unit": "%ID/g"}, {"measurement": "Kidneys uptake", "setting": "24 h post-injection", "value": "5.80 ± 1.24", "unit": "%ID/g"}, {"measurement": "Lacrimal glands uptake", "setting": "24 h post-injection", "value": "0.04 ± 0.03", "unit": "%ID/g"}, {"measurement": "Liver uptake", "setting": "24 h post-injection", "value": "0.69 ± 0.27", "unit": "%ID/g"}, {"measurement": "Lungs uptake", "setting": "24 h post-injection", "value": "0.72 ± 0.19", "unit": "%ID/g"}, {"measurement": "Muscle uptake", "setting": "24 h post-injection", "value": "0.08 ± 0.02", "unit": "%ID/g"}, {"measurement": "Pancreas uptake", "setting": "24 h post-injection", "value": "0.12 ± 0.03", "unit": "%ID/g"}, {"measurement": "Salivary glands uptake", "setting": "24 h post-injection", "value": "0.28 ± 0.04", "unit": "%ID/g"}, {"measurement": "Spleen uptake", "setting": "24 h post-injection", "value": "0.45 ± 0.10", "unit": "%ID/g"}, {"measurement": "Stomach uptake", "setting": "24 h post-injection", "value": "0.25 ± 0.13", "unit": "%ID/g"}, {"measurement": "Testes uptake", "setting": "24 h post-injection", "value": "0.64 ± 0.53", "unit": "%ID/g"}, {"measurement": "Thyroid uptake", "setting": "24 h post-injection", "value": "0.37 ± 0.06", "unit": "%ID/g"}, {"measurement": "Tumor uptake", "setting": "24 h post-injection", "value": "57.2 ± 15.3", "unit": "%ID/g"}, {"measurement": "Tumor:Blood uptake ratio", "setting": "24 h post-injection", "value": "105 ± 57.4"}, {"measurement": "Tumor:Kidney uptake ratio", "setting": "24 h post-injection", "value": "10.5 ± 4.77"}]}
